Results reported in patent US8618082B2, “Lupeol anti-tumor agent and uses thereof” (Wisconsin Alumni Research Foundation, priority 2004, dated 2013).

How the values were obtained:
IKKα protein = test: TPA-induced activation of IKKα (western blot); assay type: in vivo, mouse; conditions: TPA topical
Description: FIG. 6. Inhibitory effect of Lupeol on TPA-induced activation of IKKα, and phosphorylation and degradation of IκBα in CD-1 mice: At different times after treatment, the animals were sacrificed, epidermal cytosolic was prepared, and protein expression was determined. Equal loading was confirmed by stripping the immunoblot and reprobing it for β-actin. The immunoblots shown here are representative of three independent experiments with similar results. The values above each lane indicate relative density of the band normalized to β-actin.
(§1) The animals were shaved on the dorsal side of the skin, divided into four groups and treated topically on the shaved area with either 0.4 ml vehicle (acetone), or TPA (3.2 nmol/0.4 ml acetone/animal, v/v), or Lupeol (1 or 2 mg/0.2 ml acetone/animal, w/v) followed 30 min later with TPA (3.2 nmol/0.2 ml acetone/animal). […]
Epidermis from the whole skin was separated as described earlier (Katiyar et al., 1999) and was homogenized in ice-cold lysis buffer [50 mM Tris-HCl, 150 mM NaCl, 1 mM EGTA, 1 mM EDTA, 20 mM NaF, 100 mM Na3VO4, 0.5% NP-40, 1% Triton X-100, 1 mM PMSF (pH 7.4)] with freshly added protease inhibitor cocktail, Protease Inhibitor Cocktail Set III (Calbiochem, La Jolla, Calif., USA). […] The protein content in the lysates was measured by DC BioRad assay (BioRad Laboratories, Hercules, Calif.) as per the manufacturer's protocol. […]

epidermal iNOS protein = test: TPA-induced epidermal iNOS protein expression (western blot); assay type: in vivo, mouse; conditions: TPA alone topical
Description: (§2) FIG. 4. Inhibitory effect of Lupeol on TPA-induced epidermal ODC, iNOS and COX-2 protein expression in CD-1 mice: At different times after treatment, the animals were sacrificed, epidermal protein lysate was prepared, and ODC and COX-2 protein expression were determined. Equal loading of protein was confirmed by stripping the immunoblot and reprobing it for β-actin. The immunoblots shown here are representative of three independent experiments with similar results. The values above each lane indicate relative density of the band normalized to β-actin.
as §1, with “acetone/animal). Animals were sacrificed at different times point i.e. 6, 12, 24 and 48 h post TPA treatment.” for “acetone/animal).”
(§3) Epidermis from the whole skin was separated as described earlier (Katiyar et al., 1999) and was homogenized in ice-cold lysis buffer [50 mM Tris-HCl, 150 mM NaCl, 1 mM EGTA, 1 mM EDTA, 20 mM NaF, 100 mM Na3VO4, 0.5% NP-40, 1% Triton X-100, 1 mM PMSF (pH 7.4)] with freshly added protease inhibitor cocktail, Protease Inhibitor Cocktail Set III (Calbiochem, La Jolla, Calif., USA). […] The protein content in the lysates was measured by DC BioRad assay (BioRad Laboratories, Hercules, Calif.) as per the manufacturer's protocol.
(§4) For western blot analysis, 40 μg of the protein was resolved over 8-12% polyacrylamide gels and transferred to a nitrocellulose membrane. […] This was followed by incubation with anti-mouse or anti-rabbit secondary antibody horse-radish peroxidase (Amersham Life Sciences, Inc., USA) for 1 h and then washed several times and detected by chemiluminescence ECL kit, (Amersham Life Sciences, Inc., USA) and autoradiography using XAR-5 film obtained from Eastman Kodak Co. (Rochester, N.Y., USA). […]

CD-1 mouse skin = test: TPA-induced cutaneous edema, skin punch weight; assay type: in vivo; conditions: TPA alone, 3.2 nmole/mouse topical
Description: Studies from the inventors' laboratory and by other have shown that TPA application to mouse skin results in cutaneous edema (Katiyar et at, 1996; Liang et at, 2002). In the present study, the inventors evaluated the protective effects of topical application of Lupeol in TPA-mediated cutaneous edema in CD-1 mouse. The inventors tested four doses 0.25, 0.5, 1 and 2 mg of Lupeol per animal in the inventors' preliminary studies. […] The CD-1 mice were topically treated with Lupeol (1 and 2 mg/mouse) and 30 min later were topically treated with TPA (3.2 nmole/mouse). […] At least four determinations were made at different dorsal skin sites per mouse in each group. The data represents the mean±SE of eight mice (*p<0.01 vs TPA).
(§5) The animals were shaved on the dorsal side of the skin, divided into four groups and treated topically on the shaved area with either 0.4 ml vehicle (acetone), or TPA (3.2 nmol/0.4 ml acetone/animal, v/v), or Lupeol (1 or 2 mg/0.2 ml acetone/animal, w/v) followed 30 min later with TPA (3.2 nmol/0.2 ml acetone/animal). Animals were sacrificed at different times point i.e. 6, 12, 24 and 48 h post TPA treatment. The epidermis was separated from the whole skin and homogenized in 0.1 M Tris-HCl buffer (pH 7.2) using a Polytron tissue homogenizer (Brinkmann Instruments, Westbury, N.Y., USA) at 100,000×g supernatant, and microsomal fractions were prepared as described earlier (Katiyar and Mukhtar, 1997). The sample of 6 h treatment group was used to assess the ODC activity as this time point has previously been shown for optimal induction of the enzyme (Katiyar er al., 1996).
To assess the inhibitory effect of pre-application of Lupeol on TPA-induced edema, 1 cm-diameter punches of skin from vehicle-, Lupeol-, TPA- or Lupeol- and TPA-treated mice were removed, made free of fat pads, and weighed immediately. After drying for 24 h at 50° C., the skin punches were reweighed, and the loss of water content was determined. The difference in the amount of water gain between the control (vehicle treated) and TPA treated represented the extent of edema induced by TPA, whereas that between the control vehicle and Lupeol plus TPA represented the inhibitory effect of Lupeol. For the hyperplasia study, skin was removed, fixed in 10% formalin, and embedded in paraffin. Vertical sections (5 μm) were cut, mounted on a glass slide, and stained with hematoxylin and eosin.

epidermal COX-2 protein = test: TPA-induced epidermal COX-2 protein expression (western blot); assay type: in vivo, mouse; conditions: TPA topical, 6 h post treatment
Description: as §2, §5
(§6) Epidermis from the whole skin was separated as described earlier (Katiyar et al., 1999) and was homogenized in ice-cold lysis buffer [50 mM Tris-HCl, 150 mM NaCl, 1 mM EGTA, 1 mM EDTA, 20 mM NaF, 100 mM Na3VO4, 0.5% NP-40, 1% Triton X-100, 1 mM PMSF (pH 7.4)] with freshly added protease inhibitor cocktail, Protease Inhibitor Cocktail Set III (Calbiochem, La Jolla, Calif., USA). The homogenate was then centrifuged at 14,000×g for 25 minutes at 4° C. and the supernatant (total cell lysate) was collected, aliquoted and stored at −80° C. For the preparation of nuclear lysate, 0.2 g of the epidermis was homogenized in 1 ml of ice-cold phosphate-buffered saline (pH 7.6) and centrifuged at 12,000×g for 5 min at 4° C. […] The protein content in the lysates was measured by DC BioRad assay (BioRad Laboratories, Hercules, Calif.) as per the manufacturer's protocol.
as §4

epidermal ODC protein = test: TPA-induced epidermal ODC protein expression (western blot); assay type: in vivo, mouse; conditions: TPA topical
Description: as §2
as §1, with “acetone/animal). Animals were sacrificed at different times point i.e. 6, 12, 24 and 48 h post TPA treatment.” for “acetone/animal).”
as §3, §4

Akt = test: TPA-induced phosphorylation of Akt at Thr308 (western blot); assay type: in vivo, mouse; conditions: TPA, 6 h post treatment
Description: (§7) FIG. 5. Inhibitory effect of Lupeol on TPA-induced activation of PI3K and phosphorylation of Akt in CD-1 mice: At different times after treatment, the animals were sacrificed, epidermal protein lysate was prepared, and PI3K and phosphorylated (Thr^308) Akt and total Akt protein expression were determined. The immunoblots shown here are representative of three independent experiments with similar results. The values above each lane indicate relative density of the band normalized to β-actin.
as §1, with “acetone/animal). Animals were sacrificed at different times point i.e. 6, 12, 24 and 48 h post TPA treatment.” for “acetone/animal).”
as §3, §4

[1] = test system: catalytic (p110) and regulatory (p85) subunit of PI3K; test: TPA-induced epidermal PI3K expression (western blot); assay type: in vivo, mouse
Description: as §7, §5, §6, §4

Structure (SMILES): CCCCCCCCCCCCCC(=O)O[C@@H]1[C@@H](C)[C@@]2(O)[C@@H](C=C(CO)C[C@]3(O)C(=O)C(C)=C[C@@H]23)[C@@H]2C(C)(C)[C@]12OC(C)=O [TPA, 12-O-tetradecanoyl-phorbol acetate, reference compound]
- increase in the expression of IKKα protein (IKKα protein): 5.5 fold
- increase in iNOS protein expression vs vehicle treated controls (epidermal iNOS protein): 5 fold
- Skin punch weight 24 hrs (CD-1 mouse skin): 23.5 ± 0.5 mg/cm2
- Skin punch weight 48 hrs (CD-1 mouse skin): 25.5 ± 0.75 mg/cm2
- maximum increase in epidermal COX-2 protein expression vs acetone control (epidermal COX-2 protein): 2.7 fold
- increase in epidermal ODC protein level vs acetone treated control (epidermal ODC protein): 4 fold
- maximum phosphorylation of Akt (Akt): 3.8 fold
- increase in expression of catalytic (p110) and regulatory (p85) subunit of PI3K ([1]; TPA topical): 2 to 3 fold
- induction in the expression of catalytic subunit p110 ([1]; TPA, 6 h post treatment): 3 fold
